Measured values: US20220194952A1, “TETRAPYRROLIC CONJUGATES AND USES THEREOF FOR IMAGING” (Health Research, Inc., priority 2019, published 2022)

Assays:
[1] = Absorbance (UV-VIS) in methanol; type: physicochemical; settings: ε665 for 2 (peak 660 nm), ε785 for 4 (peak 785 nm)
Protocol: Absorbance of 2 and 4 was measured using different concentrations in methanol on UV-VIS and indicates far-red peaks at 660 nm and 785 nm, with extinction coefficients ε665=47,500 L·mol^−1 cm^−1 and ε785=18,100 L·mol^−1 cm^−1 respectively.
Chemistry Methods: All reactions were carried out in heat gun-dried glassware under an atmosphere of nitrogen and magnetic stirring. Thin layer chromatography (TLC) was done on pre-coated silica gel sheets (layer thickness 0.2 mm). Column chromatography was performed either using silica gel 60 (70-230 mesh) or neutral alumina grade III. In some cases preparative TLC was used for the purification of compounds. Purity of the compounds was ascertained by TLC and HPLC analysis. All compounds including the intermediates were >95% pure. UV-visible spectra were recorded on FT UV-visible spectrophotometer using methanol as a solvent. Mass spectrometry analyses were performed at the Mass Spectrometry Facility, University at Buffalo, N.Y. Compounds 1 and 2 were synthesized by following the methodologies previously described.

[2] = Singlet oxygen phosphorescence at 1270 nm, methanol, pulsed laser 532 nm; type: physicochemical; settings: near 5 μM, equi-absorbant at 532 nm, excited at 532 nm
Protocol: The photosensitizers, e. g., HPPH (control), 2 and 4 were individually dissolved in methanol (concentration: 5 μM) in polystyrene cuvettes and excited at 532 nm using a pulsed laser. Phosphorescence of singlet oxygen was detected at 1270 nm.
Before evaluating the imaging and photosensitizing potential of the chlorin 4 with extended ring system, its singlet oxygen producing ability was compared with the related chlorin 2. In brief, both compounds were individually dissolved in methanol in equi-absorbant (at 532 nm) concentrations near 5 μM and excited at 532 nm using a pulsed laser. The phosphorescence of singlet oxygen was detected at 1270 nm. From the results summarized in FIG. 4, it can be seen that compared to chlorin 2 with a five-member isocyclic ring, the related analog 4 with an extended ring system had remarkably lower singlet oxygen producing ability. Singlet oxygen quantum yields were φ=0.29 and φ=0.02 respectively, compared to HPPH φ=0.45.

[3] = Singlet oxygen NIR emission in O2-saturated C6D6 versus C60 standard; type: physicochemical; settings: O2-saturated C6D6, excitation 532 nm, emission at 1270 nm compared with C60
Description: Excitation wavelength: 532 nm.
After monitoring absorption characteristics in several organic and aqueous solvents, it was hypothesized that the aggregation state of 4 could have contributed in decreasing the fluorescence and singlet oxygen quantum yields. The quantum yield of singlet oxygen from 4 was ΦO2=0.31 determined by the comparison of the emission intensity at 1270 nm as compared with C60 used as a standard (ΦO2=0.96) (FIG. 5).

[4] = system: Colon26 cells; experiment: In vitro cytotoxicity (PDT) MTT assay; type: cell-based; settings: variable drug concentrations, fixed light dose 1.0 J/cm^2 (FIG. 8A)
Protocol: Drug concentrations were increased 10× (0.25 to 32.0 μM) and a significant cytotoxicity was observed only at high concentrations at the highest light dose.
Assessment of cell growth following treatment with compound solutions alone and after light exposure was determined by a colorimetric assay that measured the reduction of yellow 3-(4,5-dimethythiazol-2-yl)-2,5-diphenyl tetrazolium bromide (MTT) by mitochondrial succinate dehydrogenase.
Briefly cells were plated into 96 well plates, allowed to adhere to the plate and are treated with a range of compound concentrations for various lengths of time. The light source consisted of dye lasers (375; Spectra-Physics, Mt. View, Calif.) pumped by an argon-ion laser (either 171 or 2080; Spectra-Physics). The dye lasers were tuned to the appropriate wavelength for the compound being tested. Total light doses were ranged from 0.125 to 1.0 J/cm^2 at a fluence rate of 3.2 mW/cm^2. At 48 hours post PDT treatment, MTT was added. The solubilized formazan product was measured spectro-photometrically using a BIOTEK EL-800 plate reader. Data were processed using GEN5 software. A medium blank value was subtracted from all samples and Optical Density (O.D.) values of treated cells were divided by mean O.D. value of untreated cells for each light dose).
Colon26 cells were plated and allowed to adhere for 4 hours, then the photosensitizer was added and incubated at 37° C. for 24 hours. Plates were irradiated with 789 nm light from a dye laser at 3.2 mW/cm^2 for a total dose of 0.25 to 1.0 Joule/cm^2.

[5] = system: Colon26 tumors; experiment: In vivo PDT efficacy; parameters: species or system BALB/c mice
Protocol: Tumors were exposed to light (135 J/cm^2, 75 mW/cm^2) at 24 h (hour) postinjection (optimal time for tumor uptake for both the PSs).
For determining the in vivo imaging and therapeutic potential of 2, BALB/c mice (5-10 mice/group) bearing Colon26 tumors were used. In brief, 1×10^6 Colon26 cells were injected in mice subcutaneously. The tumors were left to grow for 1 week until they achieve the desired size (3-5 mm) for treatment. The photosensitizer was injected intravenously following the animal protocol approved by RPCI IACUC committee. Irradiance occurred 24 hours after i. v. injection; light dose was 135 J/cm^2 at a dose rate of 75 mW/cm^2 using the near-IR wavelengths of interest: 665 nm or 789 nm.
Two axes of the tumor (L, longest axis; W, shortest axis) were measured in millimeters with the aid of a Vernier caliper. Tumor weight (mg) was estimated as a formula: tumor weight=1/2 (L×W2). Tumor measurements were taken daily for the first 10 days and at least three tine a week for the first 4 weeks of post therapy and twice a week thereafter. Endpoints were 400 mm^3 tumor volume or 60 days.

extinction coefficient at far-red absorbance peak [1]: 18,100 L·mol^−1 cm^−1
Singlet oxygen quantum yield φ [2]: 0.02
quantum yield of singlet oxygen ΦO2 [3]: 0.31
Substance: methyl 3-[1′-(m-iodobenzyloxy)ethyl]-3-devinyl-13^3-keto-13^2-methoxycyclohexene [Compound 4]
in vitro cytotoxicity (in words) [4]: did not produce any significant cell kill
PDT efficacy compared with 2 (in words) ([5]; BALB/c mice bearing Colon26 tumors): far lower than that of 2
tumor cure after PDT ([5]; dose 1 μmol/kg, light 135 J/cm^2, 75 mW/cm^2 at 24 h postinjection, 5 mice/group): no tumor cure
long-term PDT efficacy at higher drug doses (in words) ([5]; higher drug doses than 1 μmol/kg, light 135 J/cm^2, 75 mW/cm^2 at 24 h): no significant long-term PDT efficacy
